From patent publication US12539284B2, “Aminoxy acid-based anti-cancer stem cell compounds and methods thereof” (Westlake University, priority 2019, dated 2026)
“Also recorded” adds a separate entry of the source. Where two headings read alike, the source gives them in different places.

Tests used:
HEY A8 CSCs [1] = assay: Apoptosis, Annexin V / PI flow cytometry, CSCs; assay type: cell-based, human; conditions: 5 μM, 2 days; DMSO 4.92%
Description: A suspension of HEY A8 cells at the concentration of 5×10^4 cells/mL in DMEM medium were seeded into 60-mm cell culture dishes. Cells were incubated at 37° C. in a humidified atmosphere containing 5% CO2 for 24 h followed by the addition of 4 mL fresh medium or medium containing compound sff-2-112 (“Example 1”) or sff-2-132 (“Example 4”) at different concentration. Medium containing 0.1% DMSO was used as negative control. After 2 days, the medium was aspirated and cells were washed with cold PBS twice, and then stained with PI and Annexin V according to the manufacture's instruction (Dead Cell Apoptosis Kit with Annexin V Alexa Fluor™ 488 & Propidium Iodide, Thermo Fisher). Cells were analyzed by flow cytometry (BD FACS CantoII Analyzer).

HEY A8 cancer cells = assay: Apoptosis, Annexin V / PI flow cytometry, cancer cells; assay type: cell-based, human; conditions: 30 μM, 2 days
Description: A suspension of HEY A8 cells at the concentration of 5×10^4 cells/mL in DMEM medium were seeded into 60-mm cell culture dishes. Cells were incubated at 37° C. in a humidified atmosphere containing 5% CO2 for 24 h followed by the addition of 4 mL fresh medium or medium containing compound sff-2-112 (“Example 1”) or sff-2-132 (“Example 4”) at different concentration. […] After 2 days, the medium was aspirated and cells were washed with cold PBS twice, and then stained with PI and Annexin V according to the manufacture's instruction (Dead Cell Apoptosis Kit with Annexin V Alexa Fluor™ 488 & Propidium Iodide, Thermo Fisher). Cells were analyzed by flow cytometry (BD FACS CantoII Analyzer).

SKOV3 cancer cells = assay: Cell viability (CellTiter-Glo) on adherent SKOV3 cancer cells; assay type: cell-based, human
Description: (§1) Cell Cultures Human ovarian carcinoma cell lines HEY A8 and SKOV3 were gifts from Professor Alice Wong's group (The University of Hong Kong). Cells were grown in Dulbecco's Modified Eagle (DMEM) medium supplemented with 10% FBS and 1% penicillin/streptomycin at 37° C. in a humidified atmosphere containing […] CO2. Isolation and culture of spheres were performed in serum-free stem-cell-selective condition as described in literature Ip etl. Oncogene 2014, 5, 9133-9149. Briefly, 1-2 weeks after plating, non-adherent spherical clusters of cells could be observed and were separated from single cells by low speed centrifugation. After 8th to 10th passages, the non-adherent spherical clusters of cells appeared as distinct spheres. Using this selection condition, HEY A8 spheres (HEY A8 SP) or SKOV3 spheres (SKOV3 SP) could be enzymatically dissociated and reformed into spheres within 3 days under stem-cell-selective condition. To allow differentiation, dissociated sphere cells were plated on tissue culture plates in medium (MCDB 105:M199=1:1) supplemented with 10% FBS and 1% PS.
HEY A8 or SKOV3 cancer Cells were plated in triplicate in 0.1 mL full medium in 96-well plates for 24 h. After that, the medium was changed to the fresh prepared medium with various concentrations of compounds. Cells were incubated for another 48 h. Then the cell viability was measured by CellTiter-Glo® Luminescent Cell Viability reagent according to the manufacture's instruction. The luminescence at 550 nm was measured using a microplate reader (SpectraMax 340PC 384, Molecular Devices).

HEY A8 CSCs (HEY A8 SP) = assay: Toxicity / cell viability (CellTiter-Glo) on HEY A8 spheres (CSCs); assay type: cell-based, human; conditions: for rank of toxicity among the 14 molecules on HEY A8 CSCs: 5 μM; for rank of toxicity among the 14 molecules on HEY A8 CSCs / cell viability of HEY A8 CSCs (toxicity): 48 h; for IC50: HEY A8 spheres, 48 h incubation, read-out: IC50 Cancer Stem Cell HeyA8 SP; for cell viability of HEY A8 CSCs (toxicity): compound 5 μM; for selectivity towards ovarian CSCs over ovarian cancer cells and normal cells: from IC50 values, FIG. 4 and Table 1
Description: Aminoxy acids were synthesized by the standard peptide coupling procedures. The CSCs are obtained by spheroids culturing under suspension condition. It is confirmed that these spheres indeed contain significant higher population of cells with CD133 antigenic phenotype, which has been reported can represent ovarian CSCs (FIG. 2). After treatment with compounds for 48 h, the cell viability of CSCs was measured by using CELLTITER-GLO® luminescent reagent. Compound sff-3-85 (“Example 2”) were used at the dose of 10 μM, all the other compounds were used at the concentration of 5 μM. All experiments were performed three times and data is presented as mean±SD.
as §1
(§2) HEY A8 SP cells (5×10^4) were plated in triplicate in 10 mL serum-free MCDB105 medium in 100-mm Petri dish for 7 days to form spheres. Compound at the final concentration of 5 μM was added. The cells were further incubated at 37° C. for 48 h. After that cells were collected by centrifugation and the medium was removed. Then 100 μL CellTiter-Glo® Luminescent Cell Viability reagent was added into each tube, which was incubated for 10 min with shaking. After that, the reagent was transferred into 96-well plates and cell viability was measured using a microplate reader (SpectraMax 340PC 384, Molecular Devices).
as §2, with “A8 SP cells or SKOV3” for “A8”, “Then drugs” for “Compound”, “different” for “the final”, “were” for “of 5 μM was”, “μL of” for “μL”

HEY A8 CSCs [2] = assay: Immunoblotting of autophagy associated proteins P62 and LC3; assay type: cell-based, human; conditions: 24 h; CSCs at 10-fold lower concentration than cancer cells
Description: HEY A8 cancer cells and CSCs were treated with compound sff-2-112 (“Example 1”) or sff-2-132 (“Example 4”) for 24 h. Then cells were washed twice with PBS buffer and lysed for immuno-staining. The immunostaining methods were as same as it described in Example 10.

NIH3T3 = assay: Toxicity against normal cell line NIH3T3; assay type: cell-based
From the text: Fourteen compounds including aminoxy acid monomers and dipeptides have been identified to show toxicity against HEY A8 CSCs. The half maximal inhibitory concentration (IC50) values of compounds sff-2-112, sff-2-124, sff-2-132 and sff-2-100 towards adherent cancer HEY A8, SKOV3 cells and CSCs were further determined. […] Especially compound sff-2-132, its selectivity to CSCs is up to 60-fold higher than that to cancer cells. Their toxicity against other normal cell lines NIH3T3, HEK293 and MDCK were also tested and the IC50 values were summarized in Table 1.

| Structure (SMILES) | Annexin V positive cells, CSCs (HEY A8 CSCs [1]) [%] | Annexin V positive cells, cancer cells (HEY A8 cancer cells) [%] | IC50 (SKOV3 cancer cells; 48 h incubation) [µM] | rank of toxicity among the 14 molecules on HEY A8 CSCs (HEY A8 CSCs (HEY A8 SP)) | IC50 (HEY A8 CSCs (HEY A8 SP)) [µM] | cell viability of HEY A8 CSCs (toxicity) (HEY A8 CSCs (HEY A8 SP)) | selectivity towards ovarian CSCs over ovarian cancer cells and normal cells (HEY A8 CSCs (HEY A8 SP)) | LC3-II and p62 levels (autophagy suppression) (HEY A8 CSCs [2]) | IC50 (NIH3T3) [µM] | IC50 (SKOV3 cancer cells; Homo sapiens, SK-OV-3, 48 h incubation) [µM] | IC50 (HEY A8 CSCs (HEY A8 SP); Homo sapiens) [µM] | selectivity to CSCs over cancer cells (HEY A8 CSCs (HEY A8 SP); ovarian CSCs vs adherent cancer cells (and normal cells)) | IC50 (NIH3T3; Mus musculus, NIH3T3) [µM] |
| --- | --- | --- | --- | --- | --- | --- | --- | --- | --- | --- | --- | --- | --- |
| O=C(NO[C@H](COCc1ccccc1)C(=O)Nc1ccccc1)c1cc(C(F)(F)F)cc(C(F)(F)F)c1 [sff-2-112] | 21.0 | 8.21 | 42.1 ± 5.2 | highest toxicity | 1.5 ± 1.3 | significantly decreased the cell viability | selectively induce the death of ovarian CSCs | Increased levels of both LC3-II and p62 in CSCs | 30.5 ± 1.1 |  |  |  |  |
| CC(C)(C)OC(=O)[C@@H](COCc1ccccc1)ONC(=O)c1cc(C(F)(F)F)cc(C(F)(F)F)c1 [sff-2-132] | 30.4 | 1.30 |  | highest toxicity |  | significantly decreased the cell viability | best selectivity; also recorded: selectively induce the death of ovarian CSCs | Increased levels of both LC3-II and p62 in CSCs |  | 63.4 ± 8.9 | 1 ± 0.9 | up to 60 fold | 58 ± 2.2 |
